Measurements: PubChem BioAssay (NCI)
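Cultured in 96-well plates, cells were exposed to test compound for 48 hours across five concentrations. TGI is the concentration that stops growth completely.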

Key:
Assay in all cases: inhibition of tumour cell growth, NCI panel, 48 h
SK-MEL-2 melanoma = tested on: SK-MEL-2 melanoma
ACHN renal = tested on: ACHN renal
MDA-N = tested on: MDA-N
MDA-MB-435 = tested on: MDA-MB-435
HT29 colon = tested on: HT29 colon
KM12 colon = tested on: KM12 colon
SK-MEL-28 melanoma = tested on: SK-MEL-28 melanoma
NCI-H460 lung = tested on: NCI-H460 lung
SK-MEL-5 melanoma = tested on: SK-MEL-5 melanoma
OVCAR-5 ovarian = tested on: OVCAR-5 ovarian
MALME-3M melanoma = tested on: MALME-3M melanoma
COLO 205 colon = tested on: COLO 205 colon
IGROV1 ovarian = tested on: IGROV1 ovarian
HCT-116 colon = tested on: HCT-116 colon
T-47D breast = tested on: T-47D breast
HL-60(TB) leukemia = tested on: HL-60(TB) leukemia
NCI-H226 lung = tested on: NCI-H226 lung
OVCAR-8 ovarian = tested on: OVCAR-8 ovarian
BT-549 breast = tested on: BT-549 breast
HS 578T breast = tested on: HS 578T breast
SF-539 CNS = tested on: SF-539 CNS
UO-31 renal = tested on: UO-31 renal
SNB-75 CNS = tested on: SNB-75 CNS
UACC-257 melanoma = tested on: UACC-257 melanoma
SW-620 colon = tested on: SW-620 colon
A498 renal = tested on: A498 renal
UACC-62 melanoma = tested on: UACC-62 melanoma
OVCAR-3 ovarian = tested on: OVCAR-3 ovarian
NCI-H23 lung = tested on: NCI-H23 lung
NCI-H522 lung = tested on: NCI-H522 lung
K-562 leukemia = tested on: K-562 leukemia
NCI/ADR-RES ovarian = tested on: NCI/ADR-RES ovarian
SF-295 CNS = tested on: SF-295 CNS
SNB-19 CNS = tested on: SNB-19 CNS
RPMI-8226 leukemia = tested on: RPMI-8226 leukemia
SF-268 CNS = tested on: SF-268 CNS
HCT-15 colon = tested on: HCT-15 colon
LOX IMVI melanoma = tested on: LOX IMVI melanoma
HOP-62 NSCLC = tested on: HOP-62 NSCLC
A549 NSCLC = tested on: A549 NSCLC
CAKI-1 renal = tested on: CAKI-1 renal
M14 melanoma = tested on: M14 melanoma
MCF7 breast = tested on: MCF7 breast
EKVX NSCLC = tested on: EKVX NSCLC
SN12C renal = tested on: SN12C renal
MDA-MB-231 breast = tested on: MDA-MB-231 breast
SK-OV-3 ovarian = tested on: SK-OV-3 ovarian
TK-10 renal = tested on: TK-10 renal
786-0 renal = tested on: 786-0 renal
U251 CNS = tested on: U251 CNS
HCC-2998 colon = tested on: HCC-2998 colon
DU-145 prostate = tested on: DU-145 prostate
RXF 393 renal = tested on: RXF 393 renal
PC-3 prostate = tested on: PC-3 prostate
CCRF-CEM leukemia = tested on: CCRF-CEM leukemia
OVCAR-4 ovarian = tested on: OVCAR-4 ovarian
MOLT-4 leukemia = tested on: MOLT-4 leukemia
HOP-92 NSCLC = tested on: HOP-92 NSCLC

CCOC(=O)c1nnsc1NC(=O)NN
TGI (SK-MEL-2 melanoma): > 100 µM | TGI (ACHN renal): > 100 µM | TGI (MDA-N): > 100 µM | TGI (MDA-MB-435): > 100 µM | TGI (HT29 colon): > 100 µM | TGI (KM12 colon): > 100 µM | TGI (SK-MEL-28 melanoma): > 100 µM | TGI (NCI-H460 lung): > 100 µM | TGI (SK-MEL-5 melanoma): > 100 µM | TGI (OVCAR-5 ovarian): > 100 µM | TGI (MALME-3M melanoma): > 100 µM | TGI (COLO 205 colon): > 100 µM | TGI (IGROV1 ovarian): > 100 µM | TGI (HCT-116 colon): > 100 µM | TGI (T-47D breast): > 100 µM | TGI (HL-60(TB) leukemia): > 100 µM | TGI (NCI-H226 lung): > 100 µM | TGI (OVCAR-8 ovarian): > 100 µM | TGI (BT-549 breast): > 100 µM | TGI (HS 578T breast): > 100 µM | TGI (SF-539 CNS): > 100 µM | TGI (UO-31 renal): > 100 µM | TGI (SNB-75 CNS): > 100 µM | TGI (UACC-257 melanoma): > 100 µM | TGI (SW-620 colon): > 100 µM | TGI (A498 renal): > 100 µM | TGI (UACC-62 melanoma): > 100 µM | TGI (OVCAR-3 ovarian): > 100 µM | TGI (NCI-H23 lung): > 100 µM | TGI (NCI-H522 lung): > 100 µM | TGI (K-562 leukemia): > 100 µM | TGI (NCI/ADR-RES ovarian): > 100 µM | TGI (SF-295 CNS): > 100 µM | TGI (SNB-19 CNS): > 100 µM | TGI (RPMI-8226 leukemia): > 100 µM | TGI (SF-268 CNS): > 100 µM | TGI (HCT-15 colon): > 100 µM | TGI (LOX IMVI melanoma): > 100 µM | TGI (HOP-62 NSCLC): > 100 µM | TGI (A549 NSCLC): > 100 µM | TGI (CAKI-1 renal): > 100 µM | TGI (M14 melanoma): > 100 µM | TGI (MCF7 breast): > 100 µM | TGI (EKVX NSCLC): > 100 µM | TGI (SN12C renal): > 100 µM | TGI (MDA-MB-231 breast): > 100 µM | TGI (SK-OV-3 ovarian): > 100 µM | TGI (TK-10 renal): > 100 µM | TGI (786-0 renal): > 100 µM | TGI (U251 CNS): > 100 µM | TGI (HCC-2998 colon): > 100 µM | TGI (DU-145 prostate): > 100 µM | TGI (RXF 393 renal): > 100 µM | TGI (PC-3 prostate): > 100 µM | TGI (CCRF-CEM leukemia): > 100 µM

Cc1ccc(C2C(C(=O)C(C)(C)C)N2S(=O)(=O)c2ccc(C)cc2)cc1 (stereo not drawn)
TGI (SK-MEL-2 melanoma): > 100 µM | TGI (MDA-N): 34.8 µM | TGI (MDA-MB-435): 45.8 µM | TGI (HT29 colon): 65.2 µM | TGI (KM12 colon): > 100 µM | TGI (SK-MEL-28 melanoma): 75.3 µM | TGI (OVCAR-5 ovarian): 49.3 µM | TGI (MALME-3M melanoma): 49.1 µM | TGI (COLO 205 colon): 34.6 µM | TGI (IGROV1 ovarian): 46.5 µM | TGI (HCT-116 colon): 35.4 µM | TGI (T-47D breast): 52 µM | TGI (NCI-H226 lung): 55.1 µM | TGI (OVCAR-8 ovarian): 51.9 µM | TGI (BT-549 breast): 37.5 µM | TGI (OVCAR-4 ovarian): 96.2 µM | TGI (HS 578T breast): 82.5 µM | TGI (SF-539 CNS): 28.9 µM | TGI (UO-31 renal): 32.6 µM | TGI (SNB-75 CNS): 69.6 µM | TGI (SW-620 colon): 74.7 µM | TGI (UACC-62 melanoma): 30.7 µM | TGI (OVCAR-3 ovarian): 62 µM | TGI (NCI-H23 lung): 48.5 µM | TGI (NCI-H522 lung): 36.1 µM | TGI (K-562 leukemia): 65.3 µM | TGI (NCI/ADR-RES ovarian): 75.9 µM | TGI (SF-295 CNS): > 100 µM | TGI (SNB-19 CNS): 57.5 µM | TGI (RPMI-8226 leukemia): 64.2 µM | TGI (SF-268 CNS): 94.6 µM | TGI (HCT-15 colon): 47.5 µM | TGI (LOX IMVI melanoma): 53.6 µM | TGI (HOP-62 NSCLC): 94.6 µM | TGI (A549 NSCLC): > 100 µM | TGI (CAKI-1 renal): 59.1 µM | TGI (M14 melanoma): 35.6 µM | TGI (MCF7 breast): 62.3 µM | TGI (EKVX NSCLC): 37 µM | TGI (SN12C renal): 40.6 µM | TGI (MDA-MB-231 breast): 39.8 µM | TGI (SK-OV-3 ovarian): > 100 µM | TGI (TK-10 renal): 97.2 µM | TGI (U251 CNS): 42 µM | TGI (HCC-2998 colon): 33.6 µM | TGI (DU-145 prostate): 38.6 µM | TGI (RXF 393 renal): 46.1 µM | TGI (PC-3 prostate): > 100 µM | TGI (CCRF-CEM leukemia): 78.1 µM

COc1ccc(N=NC(=O)NC(CC(C)C)C(=O)NC(Cc2ccccc2)C(=O)O)cc1 (stereo not drawn)
TGI (ACHN renal): > 100 µM | TGI (MDA-N): > 100 µM | TGI (MDA-MB-435): > 100 µM | TGI (HT29 colon): > 100 µM | TGI (KM12 colon): > 100 µM | TGI (SK-MEL-28 melanoma): > 100 µM | TGI (NCI-H460 lung): > 100 µM | TGI (SK-MEL-5 melanoma): 25.6 µM | TGI (OVCAR-5 ovarian): > 100 µM | TGI (MALME-3M melanoma): > 100 µM | TGI (COLO 205 colon): 5.36 µM | TGI (IGROV1 ovarian): > 100 µM | TGI (HCT-116 colon): > 100 µM | TGI (T-47D breast): > 100 µM | TGI (HL-60(TB) leukemia): 8.18 µM | TGI (NCI-H226 lung): > 100 µM | TGI (OVCAR-8 ovarian): > 100 µM | TGI (BT-549 breast): > 100 µM | TGI (OVCAR-4 ovarian): > 100 µM | TGI (MOLT-4 leukemia): > 100 µM | TGI (HS 578T breast): > 100 µM | TGI (SF-539 CNS): 3.22 µM | TGI (UO-31 renal): > 100 µM | TGI (SNB-75 CNS): > 100 µM | TGI (UACC-257 melanoma): 45.2 µM | TGI (SW-620 colon): > 100 µM | TGI (A498 renal): > 100 µM | TGI (UACC-62 melanoma): > 100 µM | TGI (OVCAR-3 ovarian): > 100 µM | TGI (NCI-H23 lung): > 100 µM | TGI (NCI-H522 lung): > 100 µM | TGI (NCI/ADR-RES ovarian): > 100 µM | TGI (HOP-92 NSCLC): 97.5 µM | TGI (SF-295 CNS): > 100 µM | TGI (SNB-19 CNS): > 100 µM | TGI (RPMI-8226 leukemia): > 100 µM | TGI (SF-268 CNS): > 100 µM | TGI (HCT-15 colon): > 100 µM | TGI (LOX IMVI melanoma): 46.9 µM | TGI (HOP-62 NSCLC): > 100 µM | TGI (A549 NSCLC): > 100 µM | TGI (CAKI-1 renal): > 100 µM | TGI (M14 melanoma): > 100 µM | TGI (MCF7 breast): > 100 µM | TGI (EKVX NSCLC): > 100 µM | TGI (SN12C renal): > 100 µM | TGI (TK-10 renal): > 100 µM | TGI (786-0 renal): > 100 µM | TGI (U251 CNS): > 100 µM | TGI (HCC-2998 colon): > 100 µM | TGI (DU-145 prostate): > 100 µM | TGI (RXF 393 renal): > 100 µM | TGI (PC-3 prostate): > 100 µM | TGI (CCRF-CEM leukemia): > 100 µM
